Assay results taken from patent publication US8530489B2 (Vertex Pharmaceuticals Incorporated, priority 2006, dated 2013).
pKi: −log10 of the molar value.

Biological target: PLK1 (Homo sapiens, UniProt P53350)
Assay: PLK1 Inhibition Assay I (radioactive-phosphate incorporation)
Format: biochemical
Details: Ki(app); PLK1 Inhibition Assay I or II (table does not say which)
In short: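 Ki(app) values came from non-linear regression of initial rates after background subtraction, with phosphopeptide measured by phosphocellulose filter binding and scintillation counting. PLK1 at 2 nM was preincubated with compound (typically from 10 μM, 2-fold dilutions) for 10 min, then run 240 min at 25° C with 350 μM [γ-33P]ATP and 450 μM peptide substrate in HEPES pH 7.5 buffer.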

Sequence of PLK1 (P53350 whole entry): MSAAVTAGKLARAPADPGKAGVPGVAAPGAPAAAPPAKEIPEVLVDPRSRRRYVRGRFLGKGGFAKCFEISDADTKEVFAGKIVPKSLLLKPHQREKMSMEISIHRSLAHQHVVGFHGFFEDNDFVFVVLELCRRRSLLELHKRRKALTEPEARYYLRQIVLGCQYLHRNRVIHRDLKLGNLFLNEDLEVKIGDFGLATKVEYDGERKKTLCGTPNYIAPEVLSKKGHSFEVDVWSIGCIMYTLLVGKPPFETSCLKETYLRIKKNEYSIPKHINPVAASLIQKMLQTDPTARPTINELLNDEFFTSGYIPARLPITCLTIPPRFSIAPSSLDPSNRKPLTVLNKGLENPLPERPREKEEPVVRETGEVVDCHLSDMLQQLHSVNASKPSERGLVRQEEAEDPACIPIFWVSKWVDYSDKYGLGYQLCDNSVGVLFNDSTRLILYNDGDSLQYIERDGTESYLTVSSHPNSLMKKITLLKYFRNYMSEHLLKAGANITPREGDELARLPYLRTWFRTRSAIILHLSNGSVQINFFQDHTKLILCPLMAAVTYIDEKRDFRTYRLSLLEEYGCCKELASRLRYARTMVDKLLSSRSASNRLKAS

pKi	Compound
> 8.52	C[C@@H](Nc1ncc(C#N)c(-c2c[nH]c3ncc(C(F)(F)F)cc23)n1)C1CCN(C(=O)[C@@H]2CCCN2)CC1 [Compound I-236, 2-((R)-1-(1-((S)-pyrrolidine-2-carbonyl)piperidin-4-yl)ethylamino)-4-(5-(trifluoromethyl)-1H-pyrrolo[2,3-b]pyridin-3-yl)pyrimidine-5-carbonitrile]
> 8.52	CC(Nc1ncc(C#N)c(-c2c[nH]c3ncc(C(F)(F)F)cc23)n1)C1(F)CCN(C(=O)[C@@H](C)O)CC1 (stereo partly drawn) [Compound I-237, 2-(1-(4-fluoro-1-((R)-2-hydroxypropanoyl)piperidin-4-yl)ethylamino)-4-(5-(trifluoromethyl)-1H-pyrrolo[2,3-b]pyridin-3-yl)pyrimidine-5-carbonitrile]
> 8.52	C[C@H](N)C(=O)N1CCC([C@@H](C)Nc2ncc(C#N)c(-c3c[nH]c4ncc(C(F)(F)F)cc34)n2)CC1 [Compound I-243, 2-((R)-1-(1-((S)-2-aminopropanoyl)piperidin-4-yl)ethylamino)-4-(5-(trifluoromethyl)-1H-pyrrolo[2,3-b]pyridin-3-yl)pyrimidine-5-carbonitrile]
> 8.52	C[C@H](N)CC(=O)N1CCC([C@@H](C)Nc2ncc(C#N)c(-c3c[nH]c4ncc(C(F)(F)F)cc34)n2)CC1 [Compound I-244, 2-((R)-1-(1-((S)-3-aminobutanoyl)piperidin-4-yl)ethylamino)-4-(5-(trifluoromethyl)-1H-pyrrolo[2,3-b]pyridin-3-yl)pyrimidine-5-carbonitrile]
> 8.52	C[C@@H](Nc1ncc(C#N)c(-c2c[nH]c3ncc(C(F)(F)F)cc23)n1)C1CCN(C(=O)[C@@H]2CCC[C@@H]2N)CC1 [Compound I-246, 2-((R)-1-(1-((1R,2S)-2-aminocyclopentanecarbonyl)piperidin-4-yl)ethylamino)-4-(5-(trifluoromethyl)-1H-pyrrolo[2,3-b]pyridin-3-yl)pyrimidine-5-carbonitrile]
> 8.52	CC(C)[C@@H](N)CC(=O)N1CCC([C@@H](C)Nc2ncc(C#N)c(-c3c[nH]c4ncc(C(F)(F)F)cc34)n2)CC1 [Compound I-247, 2-((R)-1-(1-((S)-3-amino-4-methylpentanoyl)piperidin-4-yl)ethylamino)-4-(5-(trifluoromethyl)-1H-pyrrolo[2,3-b]pyridin-3-yl)pyrimidine-5-carbonitrile]
7.40 to 8.52	C[C@@H](Nc1ncc(C#N)c(-c2c[nH]c3ncc(C(F)(F)F)cc23)n1)C1CCN(C(=O)[C@H](N)c2ccccc2)CC1 [Compound I-248, 2-((R)-1-(1-((R)-2-amino-2-phenylacetyl)piperidin-4-yl)ethylamino)-4-(5-(trifluoromethyl)-1H-pyrrolo[2,3-b]pyridin-3-yl)pyrimidine-5-carbonitrile]
> 8.52	C[C@@H](Nc1ncc(C#N)c(-c2c[nH]c3ncc(C(F)(F)F)cc23)n1)C1CCN(C(=O)[C@H]2C[C@@H](N)C2)CC1 [Compound I-253, 2-((R)-1-(1-((1s,3S)-3-aminocyclobutanecarbonyl)piperidin-4-yl)ethylamino)-4-(5-(trifluoromethyl)-1H-pyrrolo[2,3-b]pyridin-3-yl)pyrimidine-5-carbonitrile]
> 8.52	C[C@@H](Nc1ncc(C#N)c(-c2c[nH]c3ncc(C(F)(F)F)cc23)n1)C1CCN(C(=O)C(O)CO)CC1 (stereo partly drawn) [Compound I-257, 2-((1R)-1-(1-(2,3-dihydroxypropanoyl)piperidin-4-yl)ethylamino)-4-(5-(trifluoromethyl)-1H-pyrrolo[2,3-b]pyridin-3-yl)pyrimidine-5-carbonitrile]

Second part, the molecule before the results:

Compound	pKi
CC(Nc1ncc(C#N)c(-c2c[nH]c3ncc(C(F)(F)F)cc23)n1)C1CN(C(=O)CN)C1 (stereo not shown) [Compound I-235, 2-(1-(1-(2-aminoacetyl)azetidin-3-yl)ethylamino)-4-(5-(trifluoromethyl)-1H-pyrrolo[2,3-b]pyridin-3-yl)pyrimidine-5-carbonitrile]	< 7.40
CC(Nc1ncc(C#N)c(-c2c[nH]c3ncc(C(F)(F)F)cc23)n1)C1(F)CCN(CC#N)CC1 (stereo not shown) [Compound I-238, 2-(1-(1-(cyanomethyl)-4-fluoropiperidin-4-yl)ethylamino)-4-(5-(trifluoromethyl)-1H-pyrrolo[2,3-b]pyridin-3-yl)pyrimidine-5-carbonitrile]	> 8.52
C[C@@H](Nc1ncc(C#N)c(-c2c[nH]c3ncc(C(F)(F)F)cc23)n1)C1CCN(C(=O)[C@@H](N)CO)CC1 [Compound I-239, 2-((R)-1-(1-((S)-2-amino-3-hydroxypropanoyl)piperidin-4-yl)ethylamino)-4-(5-(trifluoromethyl)-1H-pyrrolo[2,3-b]pyridin-3-yl)pyrimidine-5-carbonitrile]	> 8.52
C[C@@H](Nc1ncc(C#N)c(-c2c[nH]c3ncc(C(F)(F)F)cc23)n1)C1CCN(C(=O)[C@H](N)CO)CC1 [Compound I-240, 2-((R)-1-(1-((R)-2-amino-3-hydroxypropanoyl)piperidin-4-yl)ethylamino)-4-(5-(trifluoromethyl)-1H-pyrrolo[2,3-b]pyridin-3-yl)pyrimidine-5-carbonitrile]	> 8.52
CC(C)C[C@@H](N)C(=O)N1CCC([C@@H](C)Nc2ncc(C#N)c(-c3c[nH]c4ncc(C(F)(F)F)cc34)n2)CC1 [Compound I-241, 2-((R)-1-(1-((R)-2-amino-4-methylpentanoyl)piperidin-4-yl)ethylamino)-4-(5-(trifluoromethyl)-1H-pyrrolo[2,3-b]pyridin-3-yl)pyrimidine-5-carbonitrile]	7.40 to 8.52
C[C@@H](Nc1ncc(C#N)c(-c2c[nH]c3ncc(C(F)(F)F)cc23)n1)C1CCN(C(=O)[C@@H](N)[C@@H](C)O)CC1 [Compound I-242, 2-((R)-1-(1-((2S,3R)-2-amino-3-hydroxybutanoyl)piperidin-4-yl)ethylamino)-4-(5-(trifluoromethyl)-1H-pyrrolo[2,3-b]pyridin-3-yl)pyrimidine-5-carbonitrile]	> 8.52
C[C@@H](Nc1ncc(C#N)c(-c2c[nH]c3ncc(C(F)(F)F)cc23)n1)[C@H]1CC[C@@H](N2CCN(C)CC2)CC1 [Compound I-245, 2-((R)-1-((1s,4S)-4-(4-methylpiperazin-1-yl)cyclohexyl)ethylamino)-4-(5-(trifluoromethyl)-1H-pyrrolo[2,3-b]pyridin-3-yl)pyrimidine-5-carbonitrile]	< 7.40
C[C@H](O)[C@@H](N)C(=O)N1CCC([C@@H](C)Nc2ncc(C#N)c(-c3c[nH]c4ncc(C(F)(F)F)cc34)n2)CC1 [Compound I-249, 2-((R)-1-(1-((2R,3S)-2-amino-3-hydroxybutanoyl)piperidin-4-yl)ethylamino)-4-(5-(trifluoromethyl)-1H-pyrrolo[2,3-b]pyridin-3-yl)pyrimidine-5-carbonitrile]	> 8.52
C[C@@H](Nc1ncc(C#N)c(-c2c[nH]c3ncc(C(F)(F)F)cc23)n1)C1CCN(C(=O)[C@H](N)CC(N)=O)CC1 [Compound I-250, (3R)-3-amino-4-(4-((1R)-1-(5-cyano-4-(5-(trifluoromethyl)-1H-pyrrolo[2,3-b]pyridin-3-yl)pyrimidin-2-ylamino)ethyl)piperidin-1-yl)-4-oxobutanamide]	> 8.52
C[C@@H](Nc1ncc(C#N)c(-c2c[nH]c3ncc(C(F)(F)F)cc23)n1)C1CCN(C(=O)[C@H](N)CC#N)CC1 [Compound I-251, 2-((R)-1-(1-((R)-2-amino-3-cyanopropanoyl)piperidin-4-yl)ethylamino)-4-(5-(trifluoromethyl)-1H-pyrrolo[2,3-b]pyridin-3-yl)pyrimidine-5-carbonitrile]	> 8.52
C[C@@H](Nc1ncc(C#N)c(-c2c[nH]c3ncc(C(F)(F)F)cc23)n1)C1CCN(C(=O)[C@H](N)CCCN)CC1 [Compound I-252, 2-((R)-1-(1-((R)-2,5-diaminopentanoyl)piperidin-4-yl)ethylamino)-4-(5-(trifluoromethyl)-1H-pyrrolo[2,3-b]pyridin-3-yl)pyrimidine-5-carbonitrile]	7.40 to 8.52
C[C@@H](Nc1ncc(C#N)c(-c2c[nH]c3ncc(C(F)(F)F)cc23)n1)C1CCN(C(=O)[C@@H](N)CCCN)CC1 [Compound I-254, 2-((R)-1-(1-((S)-2,5-diaminopentanoyl)piperidin-4-yl)ethylamino)-4-(5-(trifluoromethyl)-1H-pyrrolo[2,3-b]pyridin-3-yl)pyrimidine-5-carbonitrile]	> 8.52
C[C@@H](Nc1ncc(C#N)c(-c2c[nH]c3ncc(C(F)(F)F)cc23)n1)C1CCN(C(=O)[C@@H](N)CC#N)CC1 [Compound I-255, 2-((R)-1-(1-((S)-2-amino-3-cyanopropanoyl)piperidin-4-yl)ethylamino)-4-(5-(trifluoromethyl)-1H-pyrrolo[2,3-b]pyridin-3-yl)pyrimidine-5-carbonitrile]	> 8.52
CC(C)[C@@H](O)C(=O)N1CCC([C@@H](C)Nc2ncc(C#N)c(-c3c[nH]c4ncc(C(F)(F)F)cc34)n2)CC1 [Compound I-256, 2-((R)-1-(1-((R)-2-hydroxy-3-methylbutanoyl)piperidin-4-yl)ethylamino)-4-(5-(trifluoromethyl)-1H-pyrrolo[2,3-b]pyridin-3-yl)pyrimidine-5-carbonitrile]	> 8.52
C[C@@H](Nc1ncc(C#N)c(-c2c[nH]c3ncc(C(F)(F)F)cc23)n1)C1CCN(C(=O)C(N)=O)CC1 [Compound I-258, 2-(4-((1R)-1-(5-cyano-4-(5-(trifluoromethyl)-1H-pyrrolo[2,3-b]pyridin-3-yl)pyrimidin-2-ylamino)ethyl)piperidin-1-yl)-2-oxoacetamide]	> 8.52
C[C@@H](Nc1ncc(C#N)c(-c2c[nH]c3ncc(C(F)(F)F)cc23)n1)C1CCN(C(=O)[C@H]2CCN2)CC1 [Compound I-259, 2-((R)-1-(1-((R)-azetidine-2-carbonyl)piperidin-4-yl)ethylamino)-4-(5-(trifluoromethyl)-1H-pyrrolo[2,3-b]pyridin-3-yl)pyrimidine-5-carbonitrile]	> 8.52
